According to patent US20080306230A1, “Composition and Associated Method” (GENERAL ELECTRIC COMPANY, priority 2007, published 2008):

Experiment: Solubility of the product as observed
Assay type: physicochemical
Conditions: in words; water or methanol
Method: 5-norbornene-2-methanol (CAS 95-12-5, 1 gram) and sodium hydride (NaH, 60% dispersion in mineral oil, 0.6 grams) are dissolved in 50 milliliters of anhydrous THF. The mixture is refluxed overnight at 80 degrees C. After refluxing, 1,3-propane sultone (CAS 1120-71-4, 0.98 grams) in 20 milliliters of THF is added to the mixture in 10 minutes. After 5 hours, the solvent is removed by rotary evaporation and the reaction product is purified by column chromatography using silica and ethyl acetate/methanol (4:1) as eluent. […] The product yield is about 60 weight percent.
A ruthenium metal complex 1,3-bis(2,4,6-trimethylphenyl)-2-imidazolidinylidene)dichloro(phenylmethylene)(tricyclohexylphosphine)ruthenium (CAS No. 246047-72-3, 5 milligrams) is charged in a HPLC flask and the flask is degassed and purged with argon three times. Methylene chloride (CH2Cl2, 50 microliters) is injected into the flask using a syringe. The metal complex solution is cooled at −78 degrees Celsius in a dry ice and acetone bath. Norbornene sulfonate (10 milligrams, Sample 1 from Example 1) is charged into a second flask and degassed and the flask is backfilled with argon three times. Degassed methanol (500 microliters) is added to norbornene sulfonate using a syringe. The resulting mixture is also cooled at −78 degrees Celsius. […]

- solubility: soluble in water or methanol
Structure (SMILES): O=S(=O)([O-])C1CC2C=CC1C2.[Na+] (stereo not shown) [Sample 1, norbornene-sodium sulfonate]
